According to PubChem BioAssay AID330 (DTP/NCI, 2004):
Where “and” joins values, the source holds several entries; their conditions need not be identical. Equal entries are not always repeated. Inconclusive results and toxic doses are left out. The calls were made as follows: active = survival T/C of 150% or more; inactive = T/C below 125% in these data.

Tested on: P388 leukemia ip, CD2F1 mice, survival T/C
Test: NCI In Vivo Anticancer Drug Screen. Data for tumor model P388 Leukemia (intraperitoneal) in CD2F1 (CDF1) mice
Settings: endpoint: median survival time, higher = longer survival
Summary of the method: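 Mice carrying the transplanted tumor received test compound or vehicle. Survival was recorded in each group, and the value is the treated-group measurement divided by that of the vehicle-treated control group.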

[1] = dose: 50.0 mg/kg/injection, schedule: Q01DX009 (ip), vehicle: saline
[2] = dose: 100.0 mg/kg/injection, schedule: Q01DX001 (ip), vehicle: Klucel (hydroxypropylcellulose) (HPC)
[3] = dose: 200.0 mg/kg/injection, schedule: Q01DX001 (ip), vehicle: Klucel (hydroxypropylcellulose) (HPC)
[4] = dose: 400.0 mg/kg/injection, schedule: Q01DX001 (ip), vehicle: Klucel (hydroxypropylcellulose) (HPC)
[5] = dose: 60.0 mg/kg/injection, schedule: Q01DX005 (ip), vehicle: saline with Tween-80
[6] = dose: 120.0 mg/kg/injection, schedule: Q01DX005 (ip), vehicle: saline with Tween-80
[7] = dose: 50.0 mg/kg/injection, schedule: Q01DX005 (ip), vehicle: saline with Tween-80
[8] = dose: 100.0 mg/kg/injection, schedule: Q01DX005 (ip), vehicle: saline with Tween-80
[9] = dose: 200.0 mg/kg/injection, schedule: Q01DX005 (ip), vehicle: saline with Tween-80
[10] = dose: 50.0 mg/kg/injection, schedule: Q01DX009 (ip), vehicle: saline with Tween-80
[11] = dose: 100.0 mg/kg/injection, schedule: Q01DX009 (ip), vehicle: saline with Tween-80
[12] = dose: 200.0 mg/kg/injection, schedule: Q01DX009 (ip), vehicle: saline with Tween-80
[13] = dose: 50.0 mg/kg/injection, schedule: Q01DX009 (ip), vehicle: Klucel (hydroxypropylcellulose) (HPC)
[14] = dose: 100.0 mg/kg/injection, schedule: Q01DX009 (ip), vehicle: Klucel (hydroxypropylcellulose) (HPC)
[15] = dose: 200.0 mg/kg/injection, schedule: Q01DX009 (ip), vehicle: Klucel (hydroxypropylcellulose) (HPC)
[16] = dose: 25.0 mg/kg/injection, schedule: Q01DX009 (ip), vehicle: other
[17] = dose: 50.0 mg/kg/injection, schedule: Q01DX009 (ip), vehicle: other
[18] = dose: 100.0 mg/kg/injection, schedule: Q01DX009 (ip), vehicle: other
[19] = dose: 200.0 mg/kg/injection, schedule: Q01DX009 (ip), vehicle: other
[20] = dose: 25.0 mg/kg/injection, schedule: Q01DX005 (ip), vehicle: saline with Tween-80
[21] = dose: 50.0 mg/kg/injection, schedule: Q01DX005 (ip), vehicle: Klucel (hydroxypropylcellulose) (HPC)
[22] = dose: 100.0 mg/kg/injection, schedule: Q01DX005 (ip), vehicle: Klucel (hydroxypropylcellulose) (HPC)
[23] = dose: 200.0 mg/kg/injection, schedule: Q01DX005 (ip), vehicle: Klucel (hydroxypropylcellulose) (HPC)

Measured: T/C

CC(C)COCCCN
inactive: dose: 12.5 mg/kg/injection, schedule: Q01DX009 (ip), vehicle: saline 100 % of control | dose: 12.5 mg/kg/injection, schedule: Q04DX003 (ip), vehicle: saline 91 % of control | dose: 25.0 mg/kg/injection, schedule: Q01DX009 (ip), vehicle: saline 100 % of control | dose: 25.0 mg/kg/injection, schedule: Q04DX003 (ip), vehicle: saline 100 % of control | [1] 100 % of control | dose: 50.0 mg/kg/injection, schedule: Q04DX003 (ip), vehicle: saline 91 % of control

COc1cccc(N=C(C2=C(O)c3ccccc3C2=O)c2ccccc2)c1
inactive: dose: 100.0 mg/kg/injection, schedule: Q04DX002 (ip), vehicle: saline with Tween-80 101 % of control | dose: 200.0 mg/kg/injection, schedule: Q04DX002 (ip), vehicle: saline with Tween-80 97 % of control | dose: 400.0 mg/kg/injection, schedule: Q04DX002 (ip), vehicle: saline with Tween-80 100 % of control

COC(=O)CC1=NNC(=O)C1
inactive: [2] 93 % of control | [3] 99 % of control | [4] 100 % of control

Nc1nc2c(C(=O)c3cccs3)nnn2c2cccc(Cl)c12
inactive: [5] 99 % of control | [6] 100 % of control | dose: 240.0 mg/kg/injection, schedule: Q01DX005 (ip), vehicle: saline with Tween-80 104 % of control

O=S(=O)(O)C1CC(S(=O)(=O)O)NC(S(=O)(=O)O)C1 (stereo unspecified)
inactive: dose: 50.0 mg/kg/injection, schedule: Q01DX005 (ip), vehicle: saline 99 % of control | dose: 100.0 mg/kg/injection, schedule: Q01DX005 (ip), vehicle: saline 98 % of control | dose: 200.0 mg/kg/injection, schedule: Q01DX005 (ip), vehicle: saline 94 % of control

O=C(NC(=S)c1ccc(Cl)cc1)Nc1ccc(Cl)c(Cl)c1
inactive: dose: 5.0 mg/kg/injection, schedule: Q01DX009 (ip), vehicle: saline with Tween-80 87 % of control | dose: 10.0 mg/kg/injection, schedule: Q01DX009 (ip), vehicle: saline with Tween-80 96 % of control | dose: 20.0 mg/kg/injection, schedule: Q01DX009 (ip), vehicle: saline with Tween-80 100 % of control

O=C(CN1CCCC1)Nc1nc(-c2ccc(Cl)cc2)cs1
inactive: [7] 96 % of control | [8] 100 % of control | [9] 91 % of control

CN(C)c1ccc(/C=C(\NC(=O)c2ccccc2)c2nc3ccccc3s2)cc1
inactive: [5] 105 % of control | [6] 116 % of control | [9] 106 % of control

CN(C)c1ccc(C2(C(=O)O)CCCC(C)(C)C2)cc1 (stereo unspecified)
inactive: [2] 95 % of control | [3] 95 % of control | [4] 92 % of control

Nc1ncnc2c1ncn2C1OC(COC2C(O)C(OC3OC(CO)C(O)C(O)C3N)C(O)C(OS(=O)(=O)O)C2OC(=O)[C@@H](N)CO)C(O)C1O (stereo partly specified)
inactive: dose: 0.15 mg/kg/injection, schedule: Q01DX005 (ip), vehicle: Klucel (hydroxypropylcellulose) (HPC) 101 % of control | dose: 0.31 mg/kg/injection, schedule: Q01DX005 (ip), vehicle: Klucel (hydroxypropylcellulose) (HPC) 98 % of control | dose: 0.62 mg/kg/injection, schedule: Q01DX005 (ip), vehicle: Klucel (hydroxypropylcellulose) (HPC) 100 % of control | dose: 1.25 mg/kg/injection, schedule: Q01DX005 (ip), vehicle: Klucel (hydroxypropylcellulose) (HPC) 100 % of control and 94 % of control

CC(CC(=O)c1ccccc1)=NCCCCCN=C(C)CC(=O)c1ccccc1
inactive: [10] 100 % of control | [11] 102 % of control | [12] 100 % of control

O=C(O)CCN1C(=S)CSC1=S
inactive: [13] 107 % of control | [14] 103 % of control | [15] 100 % of control

CC12CC3CC(C)(C1)CC(C(Cl)C(=O)NC(C)(C)C)(C3)C2 (stereo unspecified)
inactive: [13] 97 % of control | [14] 100 % of control | [15] 93 % of control

COc1ccc(S(=O)(=O)NN)cc1
inactive: [16] 106 % of control | [17] 103 % of control | [18] 104 % of control | [19] 106 % of control

C(=N/c1ccccn1)/c1ccc(/C=N\c2ccccn2)cc1
inactive: [10] 108 % of control | [11] 100 % of control | [12] 106 % of control | dose: 400.0 mg/kg/injection, schedule: Q01DX009 (ip), vehicle: saline with Tween-80 116 % of control

CCCCN(CC(O)CNc1cc(OC)cc2cccnc12)C(C)CC (stereo unspecified)
inactive: dose: 6.25 mg/kg/injection, schedule: Q01DX005 (ip), vehicle: saline with Tween-80 95 % of control | dose: 12.5 mg/kg/injection, schedule: Q01DX005 (ip), vehicle: saline with Tween-80 91 % of control | [20] 100 % of control | dose: 25.0 mg/kg/injection, schedule: Q01DX005 (ip), vehicle: saline 92 % of control

CCCCCCCCCCCCCC[N+]1([O-])CCCCCC1
inactive: [1] 90 % of control

C=CCSc1ncnc2nc[nH]c12
inactive: [10] 100 % of control | [11] 109 % of control | dose: 100.0 mg/kg/injection, schedule: Q04DX003 (ip), vehicle: saline with Tween-80 104 % of control | dose: 200.0 mg/kg/injection, schedule: Q04DX003 (ip), vehicle: saline with Tween-80 104 % of control

O=C1C2C3C=CC(O3)C2C(=O)N1N=C1CCCCC1 (stereo unspecified)
inactive: [7] 99 % of control | [8] 101 % of control | [9] 101 % of control

NS(=O)(=O)c1ccc(NC(=S)Nc2ccccc2C(F)(F)F)cc1
inactive: dose: 50.0 mg/kg/injection, schedule: Q01DX009 (ip), vehicle: gum acacia 92 % of control | dose: 100.0 mg/kg/injection, schedule: Q01DX009 (ip), vehicle: gum acacia 109 % of control | dose: 200.0 mg/kg/injection, schedule: Q01DX009 (ip), vehicle: gum acacia 100 % of control

OCCNc1cc(Cl)c(N=C2N(Cc3ccccc3)CCN2Cc2ccccc2)c(Cl)c1
inactive: [21] 102 % of control | [22] 97 % of control | [23] 100 % of control

c1ccc(-c2nc3cc4c(cc3n3cccc23)oc2ccccc24)cc1
inactive: [20] 95 % of control | [7] 100 % of control | [8] 94 % of control

CCOC(=O)C(CCC[n+]1ccc2ccccc2c1)C(=O)OCC
inactive: [21] 96 % of control | [22] 98 % of control | [23] 98 % of control

COc1ccc(COC(=O)Sc2nc(C)cc(C)n2)cc1
inactive: [21] 101 % of control | [22] 100 % of control | [23] 102 % of control

CCOc1ccc(N2CC(=O)N3CCCCN3C(=O)C2)cc1
inactive: [21] 112 % of control | [22] 103 % of control | [23] 105 % of control

CCC[CH2][Sn][Cl]
inactive: [10] 104 % of control | [11] 114 % of control | [12] 117 % of control

O=[N+]([O-])c1cccc2nc(-c3ccccn3)n(CCc3ccncc3)c12
inactive: dose: 50.0 mg/kg/injection, schedule: Q01DX001 (ip), vehicle: Klucel (hydroxypropylcellulose) (HPC) 104 % of control | [2] 104 % of control | [3] 101 % of control

Cc1ccc(S(=O)(=O)SSC(=S)Sc2ccccc2)cc1
inactive: [13] 116 % of control | [14] 107 % of control | [15] 109 % of control

COc1cccc2c1C(=O)c1c(O)c3c(c(O)c1C2=O)CC(O)(C(C)=O)CC3O (stereo unspecified)
inactive: dose: 6.25 mg/kg/injection, schedule: Q01DX009 (ip), vehicle: other 100 % of control | dose: 12.5 mg/kg/injection, schedule: Q01DX009 (ip), vehicle: other 92 % of control | [16] 91 % of control | [17] 91 % of control | [18] 119 % of control | [19] 92 % of control | dose: 400.0 mg/kg/injection, schedule: Q01DX009 (ip), vehicle: other 98 % of control

CN(C)c1ccc(/C=C/c2nc3ccccc3s2)cc1
inactive: dose: 25.0 mg/kg/injection, schedule: Q01DX009 (ip), vehicle: Klucel (hydroxypropylcellulose) (HPC) 108 % of control | [13] 99 % of control | [14] 99 % of control | [15] 98 % of control
